Source: ChEMBL document CHEMBL4715829, “Heterodimeric Rifampicin-Tobramycin conjugates break intrinsic resistance of Pseudomonas aeruginosa to doxycycline and chloramphenicol in vitro and in a Galleria mellonella in vivo model” (Eur J Med Chem, 2019)
≈ marks a conversion by molar mass, not a printed value.

Tests used:
Pseudomonas aeruginosa [1] = test: Antibacterial activity against Pseudomonas aeruginosa 101243 assessed as reduction in bacterial growth incubated for 18 hrs by broth microdilution assay; format: functional
Pseudomonas aeruginosa [2] = test: Antibacterial activity against Pseudomonas aeruginosa 262-101856 assessed as reduction in bacterial growth incubated for 18 hrs by broth microdilution assay; format: functional
Pseudomonas aeruginosa [3] = test: Antibacterial activity against Pseudomonas aeruginosa ATCC 27853 assessed as reduction in bacterial growth incubated for 18 hrs by broth microdilution assay; format: functional
Pseudomonas aeruginosa [4] = test: Antibacterial activity against gentamicin, tobramycin-resistant Pseudomonas aeruginosa CANWARD 96846 assessed as reduction in bacterial growth incubated for 18 hrs by broth microdilution assay; format: functional
Enterococcus faecalis = test: Antibacterial activity against Enterococcus faecalis ATCC 29212 assessed as reduction in bacterial growth incubated for 18 hrs by broth microdilution assay; format: functional
Enterococcus faecium = test: Antibacterial activity against Enterococcus faecium ATCC 27270 assessed as reduction in bacterial growth incubated for 18 hrs by broth microdilution assay; format: functional
Pseudomonas aeruginosa [5] = test: Antibacterial activity against Pseudomonas aeruginosa 259-96918 assessed as reduction in bacterial growth incubated for 18 hrs by broth microdilution assay; format: functional
Pseudomonas aeruginosa [6] = test: Antibacterial activity against Pseudomonas aeruginosa 262-101856 assessed as fractional inhibitory concentration index in presence of chloramphenicol incubated for 18 hrs by broth microdilution assay; format: functional
[7] = tested on: Stenotrophomonas maltophilia; test: Antibacterial activity against Stenotrophomonas maltophilia CAN-ICU 62584 assessed as reduction in bacterial growth incubated for 18 hrs by broth microdilution assay; format: functional
Pseudomonas aeruginosa [8] = test: Antibacterial activity against Pseudomonas aeruginosa 262-101856 assessed as fractional inhibitory concentration index in presence of doxycycline incubated for 18 hrs by broth microdilution assay; format: functional
Pseudomonas aeruginosa [9] = test: Antibacterial activity against Pseudomonas aeruginosa 264-101354 assessed as fractional inhibitory concentration index in presence of chloramphenicol incubated for 18 hrs by broth microdilution assay; format: functional
Pseudomonas aeruginosa [10] = test: Antibacterial activity against Pseudomonas aeruginosa 750 harboring efflux mutant assessed as reduction in bacterial growth incubated for 18 hrs by broth microdilution assay; format: functional
Pseudomonas aeruginosa [11] = test: Antibacterial activity against Pseudomonas aeruginosa 100036 assessed as fractional inhibitory concentration index in presence of chloramphenicol incubated for 18 hrs by broth microdilution assay; format: functional
Pseudomonas aeruginosa [12] = test: Antibacterial activity against Pseudomonas aeruginosa 200 harboring efflux mutant assessed as reduction in bacterial growth incubated for 18 hrs by broth microdilution assay; format: functional
Staphylococcus aureus = test: Antibacterial activity against Staphylococcus aureus ATCC 29213 assessed as reduction in bacterial growth incubated for 18 hrs by broth microdilution assay; format: functional
Pseudomonas aeruginosa [13] = test: Antibacterial activity against Pseudomonas aeruginosa PAO1 assessed as reduction in bacterial growth by measuring meropenem MIC at <=10 uM in presence of meropenem incubated for 18 hrs by broth microdilution assay based checkerboard assay (reference value: 1 microg/ml); format: functional; details: dose microM <=10
Pseudomonas aeruginosa [14] = test: Antibacterial activity against Pseudomonas aeruginosa PAO1 assessed as reduction in bacterial growth by measuring clindamycin MIC at <=10 uM in presence of clindamycin incubated for 18 hrs by broth microdilution assay based checkerboard assay (reference value: 1024 microg/ml); format: functional; details: dose microM <=10
Pseudomonas aeruginosa [15] = test: Antibacterial activity against Pseudomonas aeruginosa 259-96918 assessed as fractional inhibitory concentration index in presence of doxycycline incubated for 18 hrs by broth microdilution assay; format: functional
[16] = Hemolytic activity in porcine erythrocyte at 1024 ug/ml incubated for 1 hr; format: ADME, cell-based, Sus scrofa; details: pig, porcine erythrocytes, at 1024 µg/mL, read-out: Activity
Pseudomonas aeruginosa [17] = test: Antibacterial activity against Pseudomonas aeruginosa PAO1 assessed as reduction in bacterial growth by measuring rifampicin MIC at <=[…] uM in presence of rifampicin incubated for 18 hrs by broth microdilution assay based checkerboard assay (reference value: […] microg/ml); format: functional; details: dose microM <=10
Pseudomonas aeruginosa [18] = test: Antibacterial activity against Pseudomonas aeruginosa PAO1 assessed as reduction in bacterial growth by measuring aztreonam MIC at <=10 uM in presence of aztreonam incubated for 18 hrs by broth microdilution assay based checkerboard assay (reference value: 4 microg/ml); format: functional; details: dose microM <=10
Pseudomonas aeruginosa [19] = test: Antibacterial activity against Pseudomonas aeruginosa PAO1 assessed as fractional inhibitory concentration index in presence of Pleuromutilin incubated for 18 hrs by broth microdilution assay based checkerboard assay; format: functional
Pseudomonas aeruginosa [20] = test: Antibacterial activity against Pseudomonas aeruginosa PAO1 assessed as fractional inhibitory concentration index in presence of Ceftazidime incubated for 18 hrs by broth microdilution assay based checkerboard assay; format: functional
Pseudomonas aeruginosa [21] = test: Antibacterial activity against Pseudomonas aeruginosa PAO1 assessed as reduction in bacterial growth by measuring vancomycin MIC at <=10 uM in presence of vancomycin incubated for 18 hrs by broth microdilution assay based checkerboard assay (reference value: 256 microg/ml); format: functional; details: dose microM <=10
[22] = Cytotoxicity against human HEK293 cells assessed as cell viability at <10 uM incubated for 48 hrs by prestoblue assay; format: cell-based; details: read-out: Activity
[23] = Cytotoxicity against human HepG2 cells assessed as cell viability at 50 uM incubated for 48 hrs by prestoblue assay; format: cell-based; details: read-out: Activity
Pseudomonas aeruginosa [24] = test: Antibacterial activity against Pseudomonas aeruginosa PAO1 assessed as reduction in bacterial growth by measuring novobiocin MIC at <=10 uM in presence of novobiocin incubated for 18 hrs by broth microdilution assay based checkerboard assay (reference value: 512 microg/ml); format: functional; details: dose microM <=10
Pseudomonas aeruginosa [25] = test: Antibacterial activity against Pseudomonas aeruginosa 264-101354 assessed as fractional inhibitory concentration index in presence of doxycycline incubated for 18 hrs by broth microdilution assay; format: functional
Pseudomonas aeruginosa [26] = test: Antibacterial activity against Pseudomonas aeruginosa PAO1 assessed as reduction in bacterial growth by measuring minocycline MIC at <=10 uM in presence of minocycline incubated for 18 hrs by broth microdilution assay based checkerboard assay (reference value: 8 microg/ml); format: functional; details: dose microM <=10
Pseudomonas aeruginosa [27] = test: Antibacterial activity against Pseudomonas aeruginosa 260-97103 assessed as fractional inhibitory concentration index in presence of doxycycline incubated for 18 hrs by broth microdilution assay; format: functional
Pseudomonas aeruginosa [28] = test: Antibacterial activity against Pseudomonas aeruginosa PAO1 assessed as fractional inhibitory concentration index in presence of Clindamycin incubated for 18 hrs by broth microdilution assay based checkerboard assay; format: functional
Pseudomonas aeruginosa [29] = test: Antibacterial activity against Pseudomonas aeruginosa PAO1 assessed as fractional inhibitory concentration index in presence of Cefotaxime incubated for 18 hrs by broth microdilution assay based checkerboard assay; format: functional
[30] = Cytotoxicity against human HepG2 cells assessed as cell viability at <10 uM incubated for 48 hrs prestoblue assay; format: cell-based; details: read-out: Activity
Pseudomonas aeruginosa [31] = test: Antibacterial activity against Pseudomonas aeruginosa PAO1 assessed as fractional inhibitory concentration index in presence of Meropenem incubated for 18 hrs by broth microdilution assay based checkerboard assay; format: functional
Pseudomonas aeruginosa [32] = test: Antibacterial activity against Pseudomonas aeruginosa PAO1 assessed as reduction in bacterial growth by measuring pleuromutilin MIC at <=10 uM in presence of pleuromutilin incubated for 18 hrs by broth microdilution assay based checkerboard assay (reference value: 512 microg/ml); format: functional; details: dose microM <=10
Pseudomonas aeruginosa [33] = test: Antibacterial activity against Pseudomonas aeruginosa PAO1 assessed as fractional inhibitory concentration index in presence of Aztreonam incubated for 18 hrs by broth microdilution assay based checkerboard assay; format: functional
Pseudomonas aeruginosa [34] = test: Antibacterial activity against Pseudomonas aeruginosa PAO1 assessed as fractional inhibitory concentration index in presence of Fosfomycin incubated for 18 hrs by broth microdilution assay based checkerboard assay; format: functional

Compound: CO[C@H]1/C=C/O[C@@]2(C)Oc3c(C)c(O)c4c(O)c(c(/C=N/N5CCN(C)CC5)c(O)c4c3C2=O)NC(=O)/C(C)=C\C=C\[C@H](C)[C@H](O)[C@@H](C)[C@@H](O)[C@@H](C)[C@H](OC(C)=O)[C@@H]1C [RIFAMPIN]
- MIC (Pseudomonas aeruginosa [1]): 4 µg/mL (≈ 4.86 µM)
- MIC (Pseudomonas aeruginosa [2]): 512 µg/mL (≈ 622 µM)
- MIC (Pseudomonas aeruginosa [3]): 32 µg/mL (≈ 38.9 µM)
- MIC (Pseudomonas aeruginosa [4]): 32 µg/mL (≈ 38.9 µM)
- MIC (Enterococcus faecalis): 1 µg/mL (≈ 1.22 µM)
- MIC (Enterococcus faecium): ≤ 0.25 µg/mL
- MIC (Pseudomonas aeruginosa [5]): 16 µg/mL (≈ 19.4 µM)
- fractional inhibitory concentration index (FICI) (Pseudomonas aeruginosa [6]): 1.5
- MIC [7]: 32 µg/mL (≈ 38.9 µM)
- fractional inhibitory concentration index (FICI) (Pseudomonas aeruginosa [8]): 1.5
- fractional inhibitory concentration index (FICI) (Pseudomonas aeruginosa [9]): 1.5
- MIC (Pseudomonas aeruginosa [10]): 32 µg/mL (≈ 38.9 µM)
- fractional inhibitory concentration index (FICI) (Pseudomonas aeruginosa [11]): 1.5
- MIC (Pseudomonas aeruginosa [12]): 16 µg/mL (≈ 19.4 µM)
- MIC (Staphylococcus aureus): ≤ 0.25 µg/mL

Compound: CO[C@H]1/C=C/O[C@@]2(C)Oc3c(C)c(O)c4c(O)c(c(/C=N/N5CCN(Cc6cn(CCCCCCO[C@@H]7[C@@H](O[C@H]8O[C@H](CO)[C@@H](O)[C@H](N)[C@H]8O)[C@H](N)C[C@H](N)[C@H]7O[C@H]7O[C@H](CN)[C@@H](O)C[C@H]7N)nn6)CC5)c(O)c4c3C2=O)NC(=O)/C(C)=C\C=C\[C@H](C)[C@H](O)[C@@H](C)[C@@H](O)[C@@H](C)[C@H](OC(C)=O)[C@@H]1C.Cl.Cl.Cl.Cl.Cl
- MIC (Pseudomonas aeruginosa [1]): ≥ 256 µg/mL
- MIC (Pseudomonas aeruginosa [13]): 1 µg/mL
- MIC (Pseudomonas aeruginosa [14]): 256 µg/mL
- fractional inhibitory concentration index (FICI) (Pseudomonas aeruginosa [15]): <0.156
- hemolysis at 1 h, 1024 ug/ml [16]: < 2%
- MIC (Pseudomonas aeruginosa [17]): 4 µg/mL
- MIC (Pseudomonas aeruginosa [2]): > 256 µg/mL
- MIC (Pseudomonas aeruginosa [3]): > 32 µg/mL
- MIC (Pseudomonas aeruginosa [4]): > 32 µg/mL
- MIC (Pseudomonas aeruginosa [18]): 4 µg/mL
- fractional inhibitory concentration index (FICI) (Pseudomonas aeruginosa [19]): 0.28
- MIC (Enterococcus faecalis): > 32 µg/mL
- MIC (Enterococcus faecium): > 32 µg/mL
- fractional inhibitory concentration index (FICI) (Pseudomonas aeruginosa [20]): 1.03
- MIC (Pseudomonas aeruginosa [5]): > 128 µg/mL
- MIC (Pseudomonas aeruginosa [21]): 256 µg/mL
- viability at 48 h [22]: > 90%
- viability at 48 h, 50 µM [23]: > 70%
- MIC (Pseudomonas aeruginosa [24]): 128 µg/mL
- fractional inhibitory concentration index (FICI) (Pseudomonas aeruginosa [25]): 0.064
- MIC (Pseudomonas aeruginosa [26]): 2 µg/mL
- fractional inhibitory concentration index (FICI) (Pseudomonas aeruginosa [27]): <0.133
- fractional inhibitory concentration index (FICI) (Pseudomonas aeruginosa [28]): 0.28
- fractional inhibitory concentration index (FICI) (Pseudomonas aeruginosa [29]): 1.03
- viability at 48 h [30]: > 90%
- fractional inhibitory concentration index (FICI) (Pseudomonas aeruginosa [31]): 1.03
- fractional inhibitory concentration index (FICI) (Pseudomonas aeruginosa [6]): <0.125
- MIC [7]: > 32 µg/mL
- fractional inhibitory concentration index (FICI) (Pseudomonas aeruginosa [8]): <0.07
- fractional inhibitory concentration index (FICI) (Pseudomonas aeruginosa [9]): 0.063
- MIC (Pseudomonas aeruginosa [32]): 128 µg/mL
- MIC (Pseudomonas aeruginosa [10]): 256 µg/mL
- fractional inhibitory concentration index (FICI) (Pseudomonas aeruginosa [11]): 0.066
- fractional inhibitory concentration index (FICI) (Pseudomonas aeruginosa [33]): 1.03
- MIC (Pseudomonas aeruginosa [12]): 128 µg/mL
- fractional inhibitory concentration index (FICI) (Pseudomonas aeruginosa [34]): 0.15
- MIC (Staphylococcus aureus): 16 µg/mL
